This is an account of results in patent US11361527B2, “Automated robotic microscopy systems” (The J. David Gladstone Institutes, a testamentary trust …, priority 2012, dated 2022).

The experiment concerns primary neurons transfected with TDP43 M337V. Briefly: Automated neurite quantification in primary neurons transfected with TDP43 M337V (ALS disease model), robotic microscope. The note with it: fluphenazine 0.1 μM vs vehicle, images every 24 hours, FIG. 24. Format: cell-based. The procedure:
Primary neurons were transfected with GFP as a control or TDP43 M337V. The disease model neurons were treated with fluphenazine (0.1 μM) or vehicle to determine whether autophagy could rescue TDP43 M337V mediated loss of neurites. Images were collected every 24 hours with the robotic microscope and neurites were quantified using automated analysis as described herein.
Further, counting the number of neurites in neuronal cultures can be an early and sensitive measure of cell health. Neurite retraction often precedes neuron death when cells are coping with neurodegenerative disease causing proteins. One way to detect neurites with low computational complexity is to quantify the total area of neurites in an image. A line detector may be used to identify pixels in an image that have local structures that represent a line. The determination is based on the second order pixel data (Hessian matrix), which is a measure of local intensity curvature. In certain aspects, such an approach uses the following parameters:
The output of the line detector is a binary image with pixels that are part of lines having a value of 1 and all other pixels having a value of 0. The pixels of this binary image are then summed to quantify the total area of neurites. […] Images were collected every 24 hours with the robotic microscope and neurites were quantified using automated analysis as described above.

On to `OCCN1CCN(CCCN2c3ccccc3Sc3ccc(C(F)(F)F)cc32)CC1` [fluphenazine], for which the “neurite degeneration induced by TDP43 M337V (loss of neurites, automated neurite quantification)” value was “mitigates neurite degeneration”.
